20 molecules from US20130252930A1 (BIOMARIN PHARMACEUTICAL INC., priority 2010, published 2013) can be followed below.

The first test addresses T1, CYP17 (human testicular microsome) (Homo sapiens, UniProt P05093).
T1 construct: using microsomal fraction from human testis (Celsis Cat #S00110) as the enzyme source; tissue Celsis S00110; host or cells: human testis microsomal fraction
T1 sequence (P05093 1-508): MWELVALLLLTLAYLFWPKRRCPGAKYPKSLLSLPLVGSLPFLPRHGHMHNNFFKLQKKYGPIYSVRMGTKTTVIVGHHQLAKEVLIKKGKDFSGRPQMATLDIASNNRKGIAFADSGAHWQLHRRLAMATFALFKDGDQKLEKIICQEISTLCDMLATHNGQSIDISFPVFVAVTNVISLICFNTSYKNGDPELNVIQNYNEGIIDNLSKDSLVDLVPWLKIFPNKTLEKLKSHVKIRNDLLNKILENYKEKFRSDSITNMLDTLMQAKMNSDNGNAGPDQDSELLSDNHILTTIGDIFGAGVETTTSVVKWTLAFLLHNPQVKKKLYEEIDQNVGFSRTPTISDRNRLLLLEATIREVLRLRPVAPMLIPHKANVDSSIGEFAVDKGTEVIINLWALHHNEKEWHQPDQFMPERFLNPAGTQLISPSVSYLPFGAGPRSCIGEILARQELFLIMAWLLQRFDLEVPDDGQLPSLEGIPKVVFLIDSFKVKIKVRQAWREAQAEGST
The test is described as follows: CYP17 enzymatic assay (% inhibition at 10 nM), version 1 (Biological Example 5). Format: biochemical. Conditions: 10 nM compound, DHEA by ELISA, read-out: Biological Example No. 5: CYP17 percent inhibition at 10 nM (version 1).
Broadly, the inhibition is the percentage by which the read-out fell short of the control. In the case of `CCCOc1cncc(C2=CC[C@H]3[C@@H]4CCN5C(=O)CCCC[C@]5(C)[C@H]4CC[C@]23C)c1` [Compound 42, (11aR,13aS)-11a,13a-dimethyl-1-(5-propoxypyridin-3-yl)-3b,4,5,8,9,10,11,11a,11b,12,13,13a-dodecahydro-3H-azepino[2,1-a]cyclopenta[f]isoquinolin-7(3aH)-one], the inhibition at 0.01 µM is 50 to 80%.

Turning to `C=Cc1cncc(C2=CC[C@H]3[C@@H]4CCN5C(=O)CCCC[C@]5(C)[C@H]4CC[C@]23C)c1` [Compound 43, (11aR,13aS)-11a,13a-dimethyl-1-(5-vinylpyridin-3-yl)-3b,4,5,8,9,10,11,11a,11b,12,13,13a-dodecahydro-3H-azepino[2,1-a]cyclopenta[f]isoquinolin-7(3aH)-one], the inhibition at 0.01 µM was in the range of 50 to 80%.

Take `COc1cncc(C2=CC[C@H]3[C@@H]4CCC5=CC(=O)NCC[C@]5(C)[C@H]4CC[C@]23C)c1` [Compound 53, (5aR,7aS)-8-(5-methoxypyridin-3-yl)-5a,7a-dimethyl-4,5,5a,5b,6,7,7a,8,9,10,10a,10b,11,12-tetradecahydrocyclopenta[5,6]naphtho[2,1-c]azepin-3(2H)-one]: the inhibition at 0.01 µM lay within 50 to 80%.

Take `C[C@]12CCC(=O)NC[C@@H]1CC[C@@H]1[C@@H]2CC[C@]2(C)C(n3ccnn3)=CC[C@@H]12` [Compound 138, (5aR,5bS,7aS,10aS,10bR,12aR)-5a,7a-dimethyl-8-(1H-1,2,3-triazol-1-yl)-1,2,5,5a,5b,6,7,7a,10,10a,10b,11,12,12a-tetradecahydrocyclopenta[5,6]naphtho[2,1-c]azepin-3(4H)-one]: the inhibition at 0.01 µM lay within 1 to 50%.

On to `C[C@]12CCNCCC1CCC1C2CC[C@]2(C)C(n3ccnn3)=CCC12` (stereo partly drawn) [Compound 139, (5aS,7aS)-5a,7a-dimethyl-8-(1H-1,2,3-triazol-1-yl)-1,2,3,4,5,5a,5b,6,7,7a,10,10a,10b,11,12,12a-hexadecahydrocyclopenta[5,6]naphtho[1,2-d]azepine], for which the inhibition at 0.01 µM lay within 1 to 50%.

`C[C@]12CCCNCC1CCC1C2CC[C@]2(C)C(n3ccnn3)=CCC12` (stereo partly drawn) [Compound 140, (5aR,7aS)-5a,7a-dimethyl-8-(1H-1,2,3-triazol-1-yl)-1,2,3,4,5,5a,5b,6,7,7a,10,10a,10b,11,12,12a-hexadecahydrocyclopenta[5,6]naphtho[2,1-c]azepine]: the inhibition at 0.01 µM lay in the range of 1 to 50%.

`CC(=O)N1CCC[C@@]2(C)[C@@H](CC[C@@H]3[C@@H]2CC[C@]2(C)C(n4ccnn4)=CC[C@@H]32)C1` [Compound 141, 1-((5aR,5bS,7aS,10aS,10bR,12aR)-5a,7a-dimethyl-8-(1H-1,2,3-triazol-1-yl)-3,4,5,5a,5b,6,7,7a,10,10a,10b,11,12,12a-tetradecahydrocyclopenta[5,6]naphtho[2,1-c]azepin-2(1H)-yl)ethanone]: the inhibition at 0.01 µM is less than 1%.

In the case of `COc1cncc(C2=CC[C@H]3[C@@H]4CCC5=CCN(C)CC[C@]5(C)[C@H]4CC[C@]23C)c1` [Compound 148], the inhibition at 0.01 µM is 1 to 50%.

On to `CCCOc1cncc(C2=CC[C@H]3[C@@H]4CCC5=CCN(C)CC[C@]5(C)[C@H]4CC[C@]23C)c1` [Compound 149], for which the inhibition at 0.01 µM lay in the range of 1 to 50%.

For `CCc1cncc(C2=CC[C@H]3[C@@H]4CCC5=CCN(C)CC[C@]5(C)[C@H]4CC[C@]23C)c1` [Compound 150], the inhibition at 0.01 µM is 1 to 50%.

Turning to `CN1CC[C@@]2(C)C(=CC1=O)CC[C@@H]1[C@@H]2CC[C@]2(C)C(n3cnc4ccccc43)=CC[C@@H]12` [Compound 155], the inhibition at 0.01 µM was in the range of 1 to 50%.

In the case of `C[C@]12CC[C@H]3[C@@H](CC[C@H]4CNC(=O)CC[C@@]43C)C1=CC=C2c1cccnc1` [Compound 166, (5aR,5bS,7aS,10bR,12aR)-5a,7a-dimethyl-8-(pyridin-3-yl)-1,2,5,5a,5b,6,7,7a,10b,11,12,12a-dodecahydrocyclopenta[5,6]naphtho[2,1-c]azepin-3(4H)-one], the inhibition at 0.01 µM lay in the range of 50 to 80%.

In the case of `C[C@]12CC[C@H]3[C@@H](CCC4CC(=O)NCC[C@@]43C)C1=CC=C2n1ccnn1` (stereo partly drawn) [Compound 178, (5aS,5bS,7aS,10bR)-5a,7a-dimethyl-8-(1H-1,2,3-triazol-1-yl)-3,4,5,5a,5b,6,7,7a,10b,11,12,12a-dodecahydrocyclopenta[5,6]naphtho[1,2-d]azepin-2(1H)-one], the inhibition at 0.01 µM was 1 to 50%.

`C[C@]12CC[C@H]3[C@@H](CCC4CNC(=O)CC[C@@]43C)C1=CC=C2n1ccnn1` (stereo partly drawn) [Compound 179, (5aR,5bS,7aS,10bR)-5a,7a-dimethyl-8-(1H-1,2,3-triazol-1-yl)-1,2,5,5a,5b,6,7,7a,10b,11,12,12a-dodecahydrocyclopenta[5,6]naphtho[2,1-c]azepin-3(4H)-one]: the inhibition at 0.01 µM fell in the range of 1 to 50%.

On to `Cc1cncc(C2=CC[C@H]3[C@@H]4CCC5N(C)C(=O)COC[C@]5(C)[C@H]4CC[C@]23C)c1` (stereo partly drawn) [Compound 445, (5aR,5bS,7aS,10aS,10bS)-1,5a,7a-trimethyl-8-(5-methylpyridin-3-yl)-5,5a,5b,6,7,7a,10,10a,10b,11,12,12a-dodecahydro-1H-cyclopenta[5,6]naphtho[2,1-e][1,4]oxazepin-2(3H)-one], for which the inhibition at 0.01 µM was 1 to 50%.

As to `Cc1cncc(C2=CCC3C4CCC5=CN(C)CCC[C@]5(C)C4CC[C@]23C)c1` (stereo partly drawn) [Compound 446, (5aR,7aS)-2,5a,7a-trimethyl-8-(5-methylpyridin-3-yl)-2,3,4,5,5a,5b,6,7,7a,10,10a,10b,11,12-tetradecahydrocyclopenta[5,6]naphtho[2,1-c]azepine], the inhibition at 0.01 µM fell in the range of 1 to 50%.

Staying with this test, now noted: compound at 10 nM, read-out: CYP17 enzymatic assay % inhibition at 10 nM (Biological Example No. 5).
`C[C@]12CC[C@H]3[C@@H](CC[C@H]4CNC(=O)CC[C@@]43C)C1=CC=C2n1ccnc1` [Compound 448, (5aR,5bS,7aS,10bR,12aR)-8-(1H-imidazol-1-yl)-5a,7a-dimethyl-1,2,5,5a,5b,6,7,7a,10b,11,12,12a-dodecahydrocyclopenta[5,6]naphtho[2,1-c]azepin-3(4H)-one]: the inhibition at 0.01 µM was in the range of 50 to 80%.

For the molecule `COC1CC[C@@]2(C)[C@@H](CC[C@@H]3[C@@H]2CC[C@]2(C)C(c4cccnc4)=CC[C@@H]32)C1` (stereo partly drawn) [Compound 449, 3-((5S,8R,9S,10S,13S,14S)-3-methoxy-10,13-dimethyl-2,3,4,5,6,7,8,9,10,11,12,13,14,15-tetradecahydro-1H-cyclopenta[a]phenanthren-17-yl)pyridine], the inhibition at 0.01 µM is 1 to 50%.

Consider `COC1CC[C@@]2(C)[C@@H](CC[C@@H]3[C@@H]2CC[C@]2(C)C(c4cncc(C)c4)=CC[C@@H]32)C1` (stereo partly drawn) [Compound 450, 3-((5S,8R,9S,10S,13S,14S)-3-methoxy-10,13-dimethyl-2,3,4,5,6,7,8,9,10,11,12,13,14,15-tetradecahydro-1H-cyclopenta[a]phenanthren-17-yl)-5-methylpyridine], for which the inhibition at 0.01 µM lay within 1 to 50%.

Turning to `COC1CC[C@@]2(C)[C@@H](CC[C@@H]3[C@@H]2CC[C@]2(C)C(n4ccnn4)=CC[C@@H]32)C1` (stereo partly drawn) [Compound 452, 1-((5S,8R,9S,10S,13S,14S)-3-methoxy-10,13-dimethyl-2,3,4,5,6,7,8,9,10,11,12,13,14,15-tetradecahydro-1H-cyclopenta[a]phenanthren-17-yl)-1H-1,2,3-triazole], the inhibition at 0.01 µM was in the range of 1 to 50%.

In a further test the target is T1, CYP17 (human testicular microsome). Briefly: CYP17 enzymatic assay (IC50) (Biological Example 4). Format: biochemical. Conditions: human testicular microsome, DHEA by ELISA; read-out: Biological Example No. 4: CYP17 enzymatic assay IC50. On the technique in general: In an ELISA, binding on a coated surface is turned into a signal by an enzyme label.
As a reminder, the IC50 is the midpoint of a concentration-inhibition curve. Consider `CCCOc1cncc(C2=CC[C@H]3[C@@H]4CCN5C(=O)CCCC[C@]5(C)[C@H]4CC[C@]23C)c1` [Compound 42, (11aR,13aS)-11a,13a-dimethyl-1-(5-propoxypyridin-3-yl)-3b,4,5,8,9,10,11,11a,11b,12,13,13a-dodecahydro-3H-azepino[2,1-a]cyclopenta[f]isoquinolin-7(3aH)-one], for which the half-inhibitory concentration (IC50) is less than 11 nM.

For `C=Cc1cncc(C2=CC[C@H]3[C@@H]4CCN5C(=O)CCCC[C@]5(C)[C@H]4CC[C@]23C)c1` [Compound 43, (11aR,13aS)-11a,13a-dimethyl-1-(5-vinylpyridin-3-yl)-3b,4,5,8,9,10,11,11a,11b,12,13,13a-dodecahydro-3H-azepino[2,1-a]cyclopenta[f]isoquinolin-7(3aH)-one], the IC50 was less than 11 nM.

With `COc1cncc(C2=CC[C@H]3[C@@H]4CCC5=CC(=O)NCC[C@]5(C)[C@H]4CC[C@]23C)c1` [Compound 53, (5aR,7aS)-8-(5-methoxypyridin-3-yl)-5a,7a-dimethyl-4,5,5a,5b,6,7,7a,8,9,10,10a,10b,11,12-tetradecahydrocyclopenta[5,6]naphtho[2,1-c]azepin-3(2H)-one], the IC50 was less than 11 nM.
